Laboratory results as given in a melting point compilation (Tetko et al.; mined from patent text by program, amines drawn as free bases though some values may be those of a salt).

First: CN1CCN(CCOc2ccc3nc(C#N)nc(NC4CCCC4)c3c2)CC1
Second: CCOC(=O)N1CCN(c2nc3c(cc2F)c(=O)c(C(=O)O)cn3C2CC2)CC1
The melting point of the first is lower: 110 to 112 °C for the first, 277 to 279 °C for the second.

First: CCS(=O)c1c(C#N)nn(-c2c(Cl)cc(C(F)(F)F)cc2Cl)c1NC (stereo not drawn)
Second: O=[N+]([O-])c1ccc(Oc2ncc(C(F)(F)F)cc2Cl)cc1
The melting point of the first is higher: 142 °C for the first, 90 to 91 °C for the second.

First: CCOC(=O)c1cccc(NC(=O)c2ccc(OC)c(NCc3cccs3)c2)c1
Second: CCOC(=O)c1cccc(-c2cn(C)cc(-c3ccccc3)c2=O)c1
The melting point of the first is lower: 153 to 155 °C for the first, 167 to 168 °C for the second.

First: O=c1c2c(n(-c3ccccc3)c3c1CCc1cc(O)ccc1-3)NCCC2
Second: COC(=O)c1c(OCc2ccccc2)ccc2c1CCCC2=NO
The melting point of the first is higher: greater than 330 °C for the first, 135 to 137 °C for the second.

First: CC(=O)c1c(C)[nH]c(C(C)CC(C)C)c1C (stereo not drawn)
Second: Cc1cc(-c2cc(Cl)n(C)n2)c(C)[nH]1
The melting point of the first is higher: 140 to 142 °C for the first, 59 to 61 °C for the second.

Compared with `O=C(c1ccc(Oc2ccc(C(F)(F)F)cc2Cl)cc1)C(Cl)Cl`, `N#Cc1ccccc1C(=O)c1ccc(S)cc1` is higher in melting point: 41 to 42 °C for the first, 102 °C for the second.

Compared with `CCOC(=O)c1sc2cc(OCc3cccnc3)ccc2c1Sc1ccccc1`, `OCCc1ccc(OCc2ccccc2)cc1` is lower in melting point: 94 to 95 °C for the first, 85 °C for the second.

First: COc1cc(COc2nn(C)cc2CO)ccc1OCc1nc(-c2ccccc2)oc1C
Second: Cc1oc(-c2ccccc2)nc1CCOc1ccc(C[C@H](NC(=O)C=Cc2ccc(F)c(F)c2)C(=O)O)cc1
The melting point of the first is lower: 108 to 109 °C for the first, 204 to 206 °C for the second.

Compared with `CCCc1nnc(-c2ccc(OC)cc2)s1`, `COc1ccc(Cn2c(Cl)nc3c(Cl)ncnc32)cc1` is higher in melting point: 54 °C for the first, 110 to 112 °C for the second.

Compared with `CSc1cccc(-c2coc3ccc(-c4nnc(C)o4)cc23)c1`, `CSc1ccc(-c2cc(C(C)C)nc(N)n2)c2ccccc12` is higher in melting point: 99 to 100 °C for the first, 139 to 140 °C for the second.

First: O=C(Nc1cc(Cl)c(Cl)c(Cl)c1)c1cc(Br)ccc1O
Second: O=C(O)c1cc2cccc(Cl)c2s1
The melting point of the first is higher: 297 to 299 °C for the first, 262 to 265 °C for the second.

Compared with `Cc1cc(Oc2ccc(S(C)(=O)=O)nc2)cc2cc(C3=NCC(CC(=O)O)S3)[nH]c12` (stereo not drawn), `CC(CO)Oc1ccc2c(c1)c(-c1cc3cccnc3[nH]1)cn2C` (stereo not drawn) is lower in melting point: 248 to 249 °C for the first, 164 to 165 °C for the second.

Compared with `CCON=C(C(C)=NOCc1ccccc1C(=COC)C(=O)OC)c1ccc(Oc2ccc(Cl)cc2)cc1`, `CCOC(=O)COc1ccc(C(=O)Nc2ccccc2Oc2ccccc2-c2nnn[nH]2)cc1` is higher in melting point: 87 to 89 °C for the first, 162 to 163 °C for the second.

Compared with `CC(O)CNC(=O)c1cc2ccccc2o1` (stereo not drawn), `CC1=NNC(C)=C(C(=O)NN)C1c1ccccc1` (stereo not drawn) is higher in melting point: 90 to 91 °C for the first, 156 °C for the second.

First: O=C1CCCN(Cc2ccc([N+](=O)[O-])cc2Cl)c2ncccc21
Second: O=[N+]([O-])C(Sc1ccc(Cl)cc1)=C1NCCN1Cc1ccc(Cl)nc1
The melting point of the first is higher: 162 °C for the first, 159 to 161 °C for the second.

First: COC(=O)c1ccc2oc(CCCCc3cc4cc(C(=O)OC)ccc4o3)cc2c1
Second: CC(C)(C)OC(=O)N1CCC(Oc2ccc(Cc3cc4cc(C#N)ccc4o3)cc2)CC1
The melting point of the first is lower: 130 to 131 °C for the first, 144 to 146 °C for the second.

Compared with `CCOC(=O)C(=CNc1cnsn1)C(=O)c1cc(F)c(F)c(F)c1F`, `CCOC(=O)c1cc(C#N)c(C=O)nc1NC(C)CC` (stereo not drawn) is lower in melting point: 81 to 83 °C for the first, 37 to 38 °C for the second.

Compared with `O=C(O)Cn1cc(Cc2nc3c(F)c(F)cc(F)c3s2)c2cc(F)ccc21`, `NC(=O)Cn1ccc2cccc(NC(c3ccc4c(cnn4-c4ccc(F)cc4)c3)C(F)(F)F)c21` (stereo not drawn) is lower in melting point: 193 to 195 °C for the first, 105 °C for the second.

First: CCS(=O)(=O)c1ccc(C=O)cc1
Second: CC(=O)c1cc(S(N)(=O)=O)ccc1F
The melting point of the first is lower: 107 to 109 °C for the first, 172 to 173 °C for the second.

First: N=C(N)c1ccc(C(=O)N[C@@H](Cc2ccccc2)C(=O)c2ccc(OCC(=O)O)cc2)cc1
Second: COC(=O)COc1ccc(NC(=O)COCc2ccccc2)cc1
The melting point of the first is higher: greater than 200 °C for the first, 76 to 77.5 °C for the second.

First: N#CC(O)COc1ccccc1 (stereo not drawn)
Second: OC(CCc1ccccc1)c1cnc2sc3c(n12)CCCC3 (stereo not drawn)
The melting point of the first is lower: 59 °C for the first, 152 to 153 °C for the second.

Compared with `COc1cc(Nc2nc3ccnc(-c4cccc(N)c4)c3o2)cc(OC)c1OC`, `COc1ccc(-c2cc(=O)n(Cc3cc(OC)c(OC)c(OC)c3)nc2-c2ccc(OC)cc2)cc1` is higher in melting point: 120 to 126 °C for the first, 138 to 139 °C for the second.

First: Cc1c(-c2ccccc2)oc2c(NC(=O)NCCCl)cccc2c1=O
Second: CCc1cccc(CC)c1N(CCl)C(=O)c1ccccc1
The melting point of the first is higher: 213 to 214 °C for the first, 98 to 99 °C for the second.

Compared with `CC(=O)OCC1OC(n2cnc3c(NCC(c4ccccc4)c4ccccc4)ncnc32)C(OC(C)=O)C1OC(C)=O` (stereo not drawn), `O=C(NCc1ccccc1)c1cnc(-c2ccccc2)nc1S` is higher in melting point: 75 to 80 °C for the first, 189 to 193 °C for the second.

First: CC(=O)OC1CCC2C3CCC4C(=O)CCCC4(C)C3CCC12C (stereo not drawn)
Second: CC1(C)CCC(C)(C)c2cc(C(O)COc3ccc(C(=O)NN4CCCCC4)c(O)c3)ccc21 (stereo not drawn)
The melting point of the first is higher: 160 to 163 °C for the first, 124 °C for the second.

First: CC(=N)Nc1cc(C)ccc1N1CCOCC1
Second: COc1ccc2c(c1)C(=NN1CCOC1=O)CCO2
The melting point of the first is higher: 121 °C for the first, 54 to 64 °C for the second.

First: CCc1nc2c(C)cc(C)nc2n1Cc1ccc(C(=Cc2nnn[nH]2)c2ccc(C(F)(F)F)cc2)cc1
Second: CCCCn1nnc(-c2cccc(-c3ccnc4c(C(=O)c5cccs5)cnn34)c2)n1
The melting point of the first is higher: 124 to 129 °C for the first, 90 °C for the second.

Compared with `CCC(C)(C)OOC(C)(CCC(=O)NNC(=O)C(C#N)=C(c1ccccc1)c1ccccc1)OOC(C)(C)CC`, `O=C(OCc1ccccc1)c1ccc(OCc2cccc(COc3ccc(C(=O)OCc4ccccc4)cc3)c2)cc1` is lower in melting point: 145 to 148 °C for the first, 92.5 to 93.8 °C for the second.

Compared with `CNS(=O)(=O)c1cn(C)c2cc(Cl)c(F)cc2c1=O`, `CS(=O)(=O)c1ccc(-c2cnn(-c3ccc(F)c(Cl)c3)c(=O)c2-c2ccc(Cl)cc2)cc1` is lower in melting point: 235 to 236 °C for the first, 205 °C for the second.

Compared with `O=C(CC(C(=O)O)c1ccccc1)Nc1cc(Cc2n[nH]c(=O)c3ccccc23)ccc1F` (stereo not drawn), `C(=NC(c1ccccc1)c1ccccc1)c1ccccc1` is lower in melting point: 180 to 183 °C for the first, 99 to 101 °C for the second.

First: COc1cc(OC)c([N+](=O)[O-])cc1[N+](=O)[O-]
Second: COc1ccc(C(=O)N2CCc3cc(S(=O)(=O)N4CC(c5ccccc5)NC4=O)ccc32)cc1OC (stereo not drawn)
The melting point of the first is lower: 153 to 155 °C for the first, 178 to 179 °C for the second.

First: CCCCCCCCCCCCc1c2c(=O)c3cc(Br)ccc3c2c(CCCCCCCCCCCC)c2c(=O)c3cc(Br)ccc3c12
Second: CCCCCCCCCCOc1ccc2c(=O)c3cc(C(=O)O)ccc3oc2c1CCC(=O)O
The melting point of the first is lower: 122 to 123 °C for the first, greater than 210 °C for the second.

First: COc1ccc2[nH]c(S(=O)Cc3ncc(C)c(N(C)C)c3Cl)nc2c1 (stereo not drawn)
Second: COC(=O)c1cn2c(n1)COc1ccc(Cl)cc1-2
The melting point of the first is lower: 147 to 149 °C for the first, 239 to 240 °C for the second.

First: O=c1[nH][nH]c(=O)c2nc3ccccc3cc12
Second: CNc1sc(Cl)cc1C(=O)c1ccccc1F
The melting point of the first is higher: 345 to 349 °C for the first, 93 to 94 °C for the second.

First: CCCCCCN(CCCCCC)c1c(N[C@@H](Cc2ccc(NC(=O)c3ccccc3)cc2)C(=O)O)c(=O)c1=O
Second: COc1ccc(CCc2ccncc2NC(=O)c2ccccc2)cc1OC1CCCC1
The melting point of the first is higher: 95 to 100 °C for the first, 50 to 51 °C for the second.

First: CN(C)C=C(C#N)CNC=O
Second: N#Cc1c(C(=O)NC2CC2)cnn1-c1ccc(Cl)cc1
The melting point of the first is lower: 90 °C for the first, 204 to 206 °C for the second.

First: CCCC1CCC(O)(c2ccc(CCCCc3ccc(C4(O)CCC(CCC)CC4)cc3)cc2)CC1 (stereo not drawn)
Second: COc1cccc(C(=CC2CCN(CCCCCCCCc3cccnc3)CC2)c2cccc(OC)c2)c1
The melting point of the first is higher: 136 °C for the first, 112 to 115 °C for the second.

First: Cc1c(-c2ccc(N)cc2)[nH]c2nccnc12
Second: Nc1cccc(Nc2cccc(N)n2)n1
The melting point of the first is higher: 330 to 332 °C for the first, 171 to 173 °C for the second.

`Nc1ccc(CCCO)cc1` and `CC(=O)Oc1ccc(CCCC2CC(=O)OC(=O)C2)cc1` cannot be ordered by melting point: 54 to 56 °C for the first, 55 to 57 °C for the second.

First: O=C(NCCO)C(=O)c1ccc(OCCOc2ccc3ccccc3c2)cc1
Second: OC(=S)CC(c1ccc(OCc2ccc3ccccc3n2)cc1)c1ccc(OCc2ccc3ccccc3n2)cc1
The melting point of the first is lower: 138 to 140 °C for the first, 175 to 180 °C for the second.

First: CCOC(=O)OC1=C(c2c(C)cc(C)cc2C)C(=O)N(N(C)C)C12CCN(OC)CC2
Second: CCOC(=O)OC1CCN(C(=O)Cn2c(=O)sc3ccc(Cl)cc32)CC1
The melting point of the first is lower: 116 to 119 °C for the first, 196 to 197 °C for the second.

First: COc1cccc(N2CCN(S(=O)(=O)c3cccc(/C=C/C(=O)NO)c3)CC2)c1
Second: Nc1cccc(Oc2cccc(Oc3cccc(N)c3)n2)c1
The melting point of the first is higher: 196 °C for the first, 118 to 120 °C for the second.

First: N=C(CCOCC(COCCC(=N)NO)(COCCC(=N)NO)COCCC(=N)NO)NO (stereo not drawn)
Second: CCCc1cc(CCC)n2nc(N3CCN(C(=O)OCC)CC3)nc2n1
The melting point of the first is lower: 60 °C for the first, 130 to 132 °C for the second.

First: N#CC=Cc1ccc(C=Cc2ccc(Br)cc2)cc1
Second: N#Cc1cc(C=Cc2ccc(N(c3ccccc3)c3ccccc3)cc2)c(C#N)cc1C=Cc1ccc(N(c2ccccc2)c2ccccc2)cc1
The melting point of the first is lower: 258 °C for the first, 260 °C for the second.

First: CC(=O)NCCCSc1c(Cc2cccc3ccccc23)sc2c1c(=O)n(C)c(=O)n2CC(C)C
Second: CC(C)C(=O)N[C@H]1N=C(c2ccccc2)c2ccccc2N(C)C1=O
The melting point of the first is higher: 114 to 117 °C for the first, 87 to 107 °C for the second.

First: Nc1nnc(-c2ccc(Cl)c(C(F)(F)F)c2)c(N)n1
Second: COc1ncc(C(F)(F)F)cc1C=NO
The melting point of the first is higher: 228 to 229 °C for the first, 98 to 104 °C for the second.

First: COCn1cc(C2=C(C#N)C(c3cccc4nonc34)c3c[nH]nc3N2)c2ccccc21 (stereo not drawn)
Second: CCN(CC)CCSc1nc2ccccc2c(=O)n1-c1ccccc1
The melting point of the first is higher: 200 °C for the first, 84.8 to 86.8 °C for the second.

First: Cn1c(COc2ccc(CC(OCc3ccc(F)cc3)C(=O)O)cc2)nc2ccc(Oc3ccc(C45CC6CC(CC(C6)C4)C5)cc3)cc21 (stereo not drawn)
Second: CC(C)C(=O)Oc1ccc2c(c1)-c1ncc(C(=O)O)c(=O)n1CC2
The melting point of the first is lower: 148 to 149 °C for the first, 183 to 185 °C for the second.

`CC1(C)COC(=O)N1c1nc(-c2ccc(C#N)cc2)c(F)s1` and `Cc1ccc(OCC(CO)NC(C)(C)C)c(-c2ccc(NN)nn2)c1` (stereo not drawn) cannot be ordered by melting point: 177 to 178 °C for the first, 172 to 178 °C for the second.
